The structures appear in SMILES notation. Read-outs that look alike come from different tables or passages of the source.

For the assay, the target named is T1, IRAK4 (Homo sapiens, UniProt Q9NWZ3).
T1 construct: Degradation of IRAK4 in OCI-LY10 was quantitatively measured using Meso Scale Discovery technology; endogenous in cells; host or cells: OCI-LY10
T1 sequence (Q9NWZ3 1-460): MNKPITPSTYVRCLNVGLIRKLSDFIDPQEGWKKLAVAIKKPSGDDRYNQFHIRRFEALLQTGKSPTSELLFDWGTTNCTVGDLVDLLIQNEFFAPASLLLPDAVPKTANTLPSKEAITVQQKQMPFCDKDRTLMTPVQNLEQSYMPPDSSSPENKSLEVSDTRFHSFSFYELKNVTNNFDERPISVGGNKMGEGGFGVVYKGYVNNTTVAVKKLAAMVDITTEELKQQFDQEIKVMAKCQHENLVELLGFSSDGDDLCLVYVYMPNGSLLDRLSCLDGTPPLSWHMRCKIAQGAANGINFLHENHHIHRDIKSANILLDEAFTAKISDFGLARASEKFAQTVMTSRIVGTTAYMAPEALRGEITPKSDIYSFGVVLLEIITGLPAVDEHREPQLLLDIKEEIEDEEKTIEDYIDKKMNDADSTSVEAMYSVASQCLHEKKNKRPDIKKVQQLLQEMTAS
The assay is described as follows: IRAK4 MSD Degradation in OCI-LY10. The assay is classed as cell-based. Conditions: OCI-LY10 cells, MSD. In short, it runs like this: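 DC50, from a three-parameter logistic fit and reported as letter bins A (<0.01 μM), B, C, D (>0.2 μM or not tested), reflects IRAK4 loss measured by MSD electrochemiluminescence in OCI-LY10 lysates. Treatment: 8 doses, 1:3 steps, top 1 to 10 μM, 4 to 24 h, 37 °C.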

Where [1] appears, read: 4 hrs incubation, read-out: IRAK4 degradation in OCI-LY10 at 4 hrs: DC50.
Setting [2] is: 24 hrs incubation, read-out: IRAK4 degradation in OCI-LY10 at 24 hrs: DC50.

As usually defined, the DC50 is the concentration at which degradation of the target reaches its halfway point. For `CN(C[C@H]1CC[C@H](n2cc(NC(=O)c3cnn4ccc(N5CCOC6(CCC6)C5)nc34)c(C(F)F)n2)CC1)C1CCN(c2cccc3c2n(C)c(=O)n3C2CCC(=O)NC2=O)CC1` (some centres unmarked) [I-357], the half-maximal degradation concentration (DC50) was above 200 nM under setting [1] and below 10 nM under setting [2].

For the molecule `CC1CN(c2ccn3ncc(C(=O)Nc4cn([C@H]5CC[C@H](CN(C)C6CCN(c7cccc8c7n(C)c(=O)n8C7CCC(=O)NC7=O)CC6)CC5)nc4C(F)F)c3n2)CCO1` (some centres unmarked) [I-358], the DC50 is above 200 nM under setting [1] and above 200 nM under setting [2].

On to `CC1CN(c2ccn3ncc(C(=O)Nc4cn([C@H]5CC[C@H](CN(C)C6CCN(c7cccc8c7n(C)c(=O)n8C7CCC(=O)NC7=O)CC6)CC5)nc4C(F)F)c3n2)CC(C)O1` (some centres unmarked) [I-359], for which the DC50 under setting [1] is above 200 nM and the DC50 under setting [2] was above 200 nM.

Consider `CN(C[C@H]1CC[C@H](n2cc(NC(=O)c3cnn4ccc(N5C[C@H]6CC[C@@H](C5)O6)nc34)c(C(F)F)n2)CC1)C1CCN(c2cccc3c2n(C)c(=O)n3C2CCC(=O)NC2=O)CC1` (some centres unmarked) [I-360], for which the DC50 is above 200 nM under setting [1] and below 10 nM under setting [2].

Take `CN(C[C@H]1CC[C@H](n2cc(NC(=O)c3cnn4ccc(C5COC5)nc34)c(C(F)F)n2)CC1)C1CCN(c2cccc3c2n(C)c(=O)n3C2CCC(=O)NC2=O)CC1` (some centres unmarked) [I-361]: the DC50 is above 200 nM under setting [1] and above 200 nM under setting [2].

With `Cn1c(=O)n(C2CCC(=O)NC2=O)c2cccc([C@H]3CC[C@H](CN4CCN(C[C@H]5CC[C@H](n6cc(NC(=O)c7cnn8ccc(N9C[C@H]%10C[C@@H]9CO%10)nc78)c(C(F)F)n6)CC5)CC4)CC3)c21` (some centres unmarked) [I-362], the DC50 was below 10 nM under setting [1] and above 200 nM under setting [2].

Consider `Cn1c(=O)n(C2CCC(=O)NC2=O)c2cccc(N3CC[C@@H](CN4CCN(C[C@H]5CC[C@H](n6cc(NC(=O)c7cnn8ccc(N9C[C@H]%10C[C@@H]9CO%10)nc78)c(C(F)F)n6)CC5)CC4)C3)c21` (some centres unmarked) [I-363], for which the DC50 by setting is: under setting [1], above 200 nM; under setting [2], above 200 nM.

For `Cn1c(=O)n(C2CCC(=O)NC2=O)c2cccc(N3CC[C@H](CN4CCN(C[C@H]5CC[C@H](n6cc(NC(=O)c7cnn8ccc(N9C[C@H]%10C[C@@H]9CO%10)nc78)c(C(F)F)n6)CC5)CC4)C3)c21` (some centres unmarked) [I-364], the 50% degradation concentration (DC50) under setting [1] was above 200 nM and the DC50 under setting [2] was above 200 nM.

As for `Cn1c(=O)n(C2CCC(=O)NC2=O)c2cccc(N3CCN([C@@H]4CCN(C[C@H]5CC[C@H](n6cc(NC(=O)c7cnn8ccc(N9C[C@H]%10C[C@@H]9CO%10)nc78)c(C(F)F)n6)CC5)CC4(F)F)CC3)c21` (some centres unmarked) [I-365], the DC50 was above 200 nM under setting [1] and above 200 nM under setting [2].

Consider `Cn1c(=O)n(C2CCC(=O)NC2=O)c2cccc(N3CCN([C@H]4CCN(C[C@H]5CC[C@H](n6cc(NC(=O)c7cnn8ccc(N9C[C@H]%10C[C@@H]9CO%10)nc78)c(C(F)F)n6)CC5)CC4(F)F)CC3)c21` (some centres unmarked) [I-366], for which the DC50 under setting [1] was above 200 nM and the DC50 under setting [2] was above 200 nM.

Turning to `Cn1c(=O)n(C2CCC(=O)NC2=O)c2cccc(N3CCC(N4CCN(C[C@H]5CC[C@H](n6cc(NC(=O)c7cnn8ccc(N9C[C@H]%10C[C@@H]9CO%10)nc78)c(C(F)F)n6)CC5)CC4)CC3)c21` (some centres unmarked) [I-367], the DC50 was above 200 nM under setting [1] and above 200 nM under setting [2].

Consider `Cn1c(=O)n(C2CCC(=O)NC2=O)c2cccc(N3CCC(N(C[C@H]4CC[C@H](n5cc(NC(=O)c6cnn7cccnc67)c(C(F)F)n5)CC4)C(F)(F)F)CC3)c21` (some centres unmarked) [I-368], for which the DC50 under setting [1] is above 200 nM and the DC50 under setting [2] was above 200 nM.

Take `Cn1c(=O)n(C2CCC(=O)NC2=O)c2cccc(C#CCN3CCN(Cc4ccc(-n5cc(NC(=O)c6cnn7ccc(N8C[C@H]9C[C@@H]8CO9)nc67)c(C(F)F)n5)cc4)CC3)c21` (some centres unmarked) [I-369]: the DC50 reads like this: under setting [1], below 10 nM; under setting [2], above 200 nM.

As to `Cn1c(=O)n(C2CCC(=O)NC2=O)c2cccc(C#CCOC3CCN(Cc4ccc(-n5cc(NC(=O)c6cnn7ccc(N8C[C@H]9C[C@@H]8CO9)nc67)c(C(F)F)n5)cc4)CC3)c21` (some centres unmarked) [I-370], the DC50 is 10 to 100 nM under setting [1] and above 200 nM under setting [2].

On to `Cn1c(=O)n(C2CCC(=O)NC2=O)c2cccc(C#CCOc3ccc(CN4CCC(n5cc(NC(=O)c6cnn7ccc(N8CC9C[C@@H]8CO9)nc67)c(C(F)F)n5)CC4)cc3)c21` (some centres unmarked) [I-371], for which the DC50 under setting [1] was above 200 nM and the DC50 under setting [2] is above 200 nM.

For `Cn1c(=O)n(C2CCC(=O)NC2=O)c2cccc(C#CCc3ccc(CN4CCC(n5cc(NC(=O)c6cnn7ccc(N8CC9C[C@@H]8CO9)nc67)c(C(F)F)n5)CC4)cc3)c21` (some centres unmarked) [I-372], the DC50 under setting [1] was above 200 nM and the half-maximal degradation concentration (DC50) under setting [2] was above 200 nM.

For `CN(CC1CCN(c2cccc3c2n(C)c(=O)n3C2CCC(=O)NC2=O)CC1)c1ccc(-n2cc(NC(=O)c3cnn4cccnc34)c(C(F)F)n2)cc1` (centres unmarked) [I-373], the DC50 reads like this: under setting [1], above 200 nM; under setting [2], above 200 nM.

Consider `Cn1c(=O)n(C2CCC(=O)NC2=O)c2cccc(C#CCC3CCN(C[C@H]4CC[C@H](n5cc(NC(=O)c6cnn7ccc(N8C[C@H]9C[C@@H]8CO9)nc67)c(C(F)F)n5)CC4)CC3(F)F)c21` (some centres unmarked) [I-374], for which the DC50 is 10 to 100 nM under setting [1] and above 200 nM under setting [2].

Regarding `Cn1c(=O)n(C2CCC(=O)NC2=O)c2cccc(C#CCN3CCC(C[C@H]4CC[C@H](n5cc(NC(=O)c6cnn7ccc(N8C[C@H]9C[C@@H]8CO9)nc67)c(C(F)F)n5)CC4)C(F)(F)C3)c21` (some centres unmarked) [I-375], the DC50 under setting [1] was above 200 nM and the DC50 under setting [2] was above 200 nM.

For the molecule `CN(C[C@H]1CC[C@H](n2cc(NC(=O)c3cnn4cccnc34)c(C(F)F)n2)CC1)C1CCN(c2cccc3c2n(C)c(=O)n3C2CCC(=O)NC2=O)CC1(F)F` (some centres unmarked) [I-376], the DC50 reads like this: under setting [1], above 200 nM; under setting [2], above 200 nM.

As for `CN(Cc1ccc(-n2cc(NC(=O)c3cnn4cccnc34)c(C(F)F)n2)cc1)C1CCN(c2cccc3c2n(C)c(=O)n3C2CCC(=O)NC2=O)CC1(F)F` (centres unmarked) [I-377], the half-maximal degradation concentration (DC50) by setting is: under setting [1], above 200 nM; under setting [2], above 200 nM.

In the case of `CN(C[C@H]1CC[C@H](n2cc(NC(=O)c3cnn4cccnc34)c(C(F)F)n2)CC1)c1ccc(-c2cccc3c2n(C)c(=O)n3C2CCC(=O)NC2=O)cc1` (some centres unmarked) [I-378], the DC50 under setting [1] was above 200 nM and the 50% degradation concentration (DC50) under setting [2] was above 200 nM.

Regarding `Cn1c(=O)n(C2CCC(=O)NC2=O)c2cccc(C#CC[C@H]3CN(CC4CCC(n5cc(NC(=O)c6cnn7ccc(N8C[C@H]9C[C@@H]8CO9)nc67)c(C(F)F)n5)CC4)CCO3)c21` (some centres unmarked) [I-379], the DC50 is, setting by setting: under setting [1], above 200 nM; under setting [2], above 200 nM.

Turning to `Cn1c(=O)n(C2CCC(=O)NC2=O)c2cccc(C#CC[C@H]3CN(Cc4ccc(-n5cc(NC(=O)c6cnn7ccc(N8C[C@H]9C[C@@H]8CO9)nc67)c(C(F)F)n5)cc4)CCO3)c21` (some centres unmarked) [I-380], the DC50 is above 200 nM under setting [1] and above 200 nM under setting [2].

In the case of `Cn1c(=O)n(C2CCC(=O)NC2=O)c2cccc(C[C@H]3CN(C[C@H]4CC[C@H](n5cc(NC(=O)c6cnn7cccnc67)c(C(F)F)n5)CC4)CCO3)c21` (some centres unmarked) [I-381], the DC50 is, setting by setting: under setting [1], above 200 nM; under setting [2], above 200 nM.

As to `Cn1c(=O)n(C2CCC(=O)NC2=O)c2cccc(C[C@H]3CN(Cc4ccc(-n5cc(NC(=O)c6cnn7cccnc67)c(C(F)F)n5)cc4)CCO3)c21` (some centres unmarked) [I-382], the DC50 is, setting by setting: under setting [1], above 200 nM; under setting [2], above 200 nM.

As for `Cn1c(=O)n(C2CCC(=O)NC2=O)c2cccc(C[C@H]3CN(Cc4ccc(-n5cc(NC(=O)c6cnn7ccc(N8C[C@H]9C[C@@H]8CO9)nc67)c(C(F)F)n5)cc4)CCO3)c21` (some centres unmarked) [I-384], the half-maximal degradation concentration (DC50) is, setting by setting: under setting [1], above 200 nM; under setting [2], above 200 nM.

Turning to `Cn1c(=O)n(C2CCC(=O)NC2=O)c2cccc(CC[C@H]3CN(C[C@H]4CC[C@H](n5cc(NC(=O)c6cnn7ccc(N8C[C@H]9C[C@@H]8CO9)nc67)c(C(F)F)n5)CC4)CCO3)c21` (some centres unmarked) [I-385], the DC50 under setting [1] was below 10 nM and the 50% degradation concentration (DC50) under setting [2] was above 200 nM.

On to `Cn1c(=O)n(C2CCC(=O)NC2=O)c2cccc(CC[C@H]3CN(Cc4ccc(-n5cc(NC(=O)c6cnn7ccc(N8C[C@H]9C[C@@H]8CO9)nc67)c(C(F)F)n5)cc4)CCO3)c21` (some centres unmarked) [I-386], for which the DC50 is above 200 nM under setting [1] and above 200 nM under setting [2].

For `Cn1c(=O)n(C2CCC(=O)NC2=O)c2cccc(CC[C@H]3CN(C[C@H]4CC[C@H](n5cc(NC(=O)c6cnn7cccnc67)c(C(F)F)n5)CC4)CCO3)c21` (some centres unmarked) [I-387], the DC50 is below 10 nM under setting [1] and above 200 nM under setting [2].

On to `Cn1c(=O)n(C2CCC(=O)NC2=O)c2cccc(CC[C@H]3CN(Cc4ccc(-n5cc(NC(=O)c6cnn7cccnc67)c(C(F)F)n5)cc4)CCO3)c21` (some centres unmarked) [I-388], for which the DC50 under setting [1] is above 200 nM and the DC50 under setting [2] was above 200 nM.

For `Cn1c(=O)n(C2CCC(=O)NC2=O)c2cccc(C#CC[C@@H]3CN(C[C@H]4CC[C@H](n5cc(NC(=O)c6cnn7ccc(N8C[C@H]9C[C@@H]8CO9)nc67)c(C(F)F)n5)CC4)CCO3)c21` (some centres unmarked) [I-389], the DC50 reads like this: under setting [1], 10 to 100 nM; under setting [2], above 200 nM.

In the case of `Cn1c(=O)n(C2CCC(=O)NC2=O)c2cccc(C#CC[C@@H]3CN(Cc4ccc(-n5cc(NC(=O)c6cnn7ccc(N8C[C@H]9C[C@@H]8CO9)nc67)c(C(F)F)n5)cc4)CCO3)c21` (some centres unmarked) [I-390], the DC50 by setting is: under setting [1], above 200 nM; under setting [2], above 200 nM.

On to `Cn1c(=O)n(C2CCC(=O)NC2=O)c2cccc(C[C@@H]3CN(C[C@H]4CC[C@H](n5cc(NC(=O)c6cnn7cccnc67)c(C(F)F)n5)CC4)CCO3)c21` (some centres unmarked) [I-391], for which the DC50 is above 200 nM under setting [1] and above 200 nM under setting [2].

The record behind these values is patent publication US12091411B2, “IRAK degraders and uses thereof” (Kymera Therapeutics, Inc., priority 2022, dated 2024).
